Data on four molecules can be found in patent US20230181027A1, “METHODS AND MATERIALS FOR TREATING NEUROMYELITIS OPTICA SPECTRUM DISEASES” (Mayo Foundation for Medical Education and Research, priority 2019, published 2023).

Test [1] deals with microglia. The experiment in a line: Iba1 immunostaining of spinal cord microglia (activation or depletion). It counts as in vivo, mice. An excerpt: To examine microglial activation in our murine model of NMO, genetic labeling of microglia (CX3CR1^GFP/+) and immunostaining for the microglial marker Iba1 were used. […] In addition, NMO-IgG induced striking morphological transition of microglia, from “resting” ramified to “activated” bushy phenotype in time-dependent manner (FIG. 4C).
Microglial activation after NMO-IgG infusion indicates a potential role for microglia in NMO pathogenesis. To test this idea, microglia ablation approaches were utilized to directly examine the requirement of microglia in NMO-induced motor deficits. […].
TM (Sigma) was administered as a solution in corn oil (Sigma) to mice over 4 weeks of age via i.p. injection. Animals received four doses of TM (150 mg kg^-1, 20 mg mL^-1 in corn oil) in 48 hour intervals. […] Mice administered with DT only (without TM) were used as control for all ablation experiments.
Mice were deeply anaesthetized with isoflurane (5% in O2) and perfused transcardially with 20 mL PBS followed by 20 mL of cold 4% paraformaldehyde (PFA) in PBS. The spinal cord was removed and post-fixed with 4% PFA for 6 hours at 4° C. Samples were then transferred to 30% sucrose in PBS overnight. […] Cell counting and fluorescent signal intensity was quantified using ImageJ software (National Institutes of Health, Bethesda, MD).
Quantification of Iba1 cells was done with ImageJ software (NIH Image). […]

For test [2], the system named is murine model of NMO. Put plainly: Rotarod test (latency to fall) in murine model of NMO with intrathecal NMO-IgG infusion. It counts as in vivo, mice. The text has this: To investigate the cellular and molecular mechanisms underlying NMO pathology, a murine model was developed that utilizes IgG purified from NMO patient serum (NMO-IgG) or monoclonal AQP4-specific IgG. IgG collected from healthy individuals, or from healthy control subjects (control-IgG), or a control monoclonal IgG of irrelevant specificity was used in each experiment. NMO-IgG and control-IgG was purified by protein G adsorption (FIG. 1). An osmotic mini-pump delivery system loaded with either NMO-IgG, AQP4-IgG or control-IgG was placed subcutaneously and IgG was infused continuously into the spinal subarachnoid space via intrathecal catheter for 5 to 7 days (FIG. 2A). […] Gait analysis was also performed using ink tracking as described elsewhere (see, e.g., Zhang et al., J. Autoimmun. 53:67-77 (2014)). […] After 5 days of either […], 3 µg/µL, or 1 µg/µL NMO-IgG treatment, stride lengths decreased from an average of 5.7 cm to 2.6, 3.8, and 5.0 cm respectively (FIGS. 2C and 2D).
A 3.5 cm polyurethane-silicone catheter (Alzet, CA) was inserted at the condylar canal to accesses the subarachnoid space at the cisterna magna and extended to lumbar level of spinal cord. Five days later an osmotic mini-pump delivery system, containing either NMO-IgG or control-IgG, was placed subcutaneously over the right shoulder. IgG was delivered continuously for 5-7 days (1-10 µg/day) (FIG. 2A).
The rotarod tests were performed using a five-lane Rotarod apparatus (Med Assocaites Inc). The rotarod speed started from 4 rounds per minute and uniformly accelerated to 40 rounds per minute over 5 minutes. Each mouse was tested for 3 times with 15 minute intervals. For gait analysis, mouse fore and hind limbs were covered by different color ink and allowed to walk freely across a narrow strip of paper. Stride length of hind limbs was reported as the mean of 5 sequential steps.
Minocycline hydrochloride was dissolved in PBS with 1% DMSO at 30 µg/µL and mixed with 20 µg/µL NMO-IgG to make a mixture of 15 µg/µL minocycline and 10 µg/µL NMO-IgG. […]
Background: In the rotarod test animals must keep their balance on a rotating rod.

The subject of test [3] is microglia-astrocyte interaction. The experiment in a line: Microglia-astrocyte interaction (Iba1/GFAP or CX3CR1-GFP/GFAP overlap) in L4 spinal cord. It counts as in vivo, mice. Particulars: intrathecal, 150 µg/day, with NMO-IgG infusion. The text has this:
However, the question remains as to what cellular and molecular mechanisms underlie microglial function in NMO. […] Under control conditions, GFAP^+ astrocytes rarely overlap with Iba1^+ microglia. However, spatial overlapping was abundant after NMO-IgG exposure. […] Specifically, on average only 17% of microglia interact with astrocytes under control conditions while 65% of microglia overlap with astrocytes after NMO-IgG infusion.
(§1) Mice were deeply anaesthetized with isoflurane (5% in O2) and perfused transcardially with 20 mL PBS followed by 20 mL of cold 4% paraformaldehyde (PFA) in PBS. The spinal cord was removed and post-fixed with 4% PFA for 6 hours at 4° C. Samples were then transferred to 30% sucrose in PBS overnight. Sample sections ([…] in thickness) were prepared on gelatin-coated glass slide with a cryostat (Leica). […] Cell counting and fluorescent signal intensity was quantified using ImageJ software (National Institutes of Health, Bethesda, MD).

In test [4] the test system is astrocyte complement C3. Put plainly: Complement C3 and GFAP double staining of astrocytes in L4 spinal cord. It counts as in vivo, mice. Particulars: minocycline co-infusion with NMO-IgG.
Text: Astrocytes exposed in culture to NMO-IgG increase their production and secretion of all complement components, except C1q, which is made by activated microglia (see, Howe et al., Glia 62:692-708 (2014)). […] In contrast, C3 expression was principally restricted to the lumen of blood vessels following control-IgG exposure. The percentage of C3^+ astrocytes in spinal cord of mice receiving NMO-IgG was ~5-fold higher than that of control-IgG recipients (FIG. 10A). C3 upregulation in astrocytes is independent of microglia, as a similar C3 increase was found after microglia ablation (FIG. 11).
as §1

For test [5], the system named is microglia. Put plainly: In situ microglial process chemoattraction assay (C3a-containing pipettes). It counts as cell-based, mice. As to the method:
The cleavage of the complement component C3 produces two signaling molecules, C3a and C3b.
Hippocampal tissue slices ([…] thick) were prepared from P14-21 mice and incubated in imaging media. Microglia were visualized by GFP. For each image in the time-series, 15 z-steps spaced […] apart were collected per image ([…] total depth). Images were taken at 5 minute intervals for up to 1 hour on Scientifica 2-photon microscope with an X20 lens. Image processing and analysis was performed using NIH Image J software.

For the molecule `FC(F)(F)c1ccc(CNc2ccc(Cc3c[nH]c4ncc(Cl)cc34)cn2)cn1` [PLX3397, Pexidartinib], in test [1] (PLX3397 chow, day 5 after NMO-IgG infusion, versus control chow), the “depletion of microglia in the L4 spinal cord (Iba1+ cell density)” value is recorded as “eliminated most of the microglia”. The “motor function after NMO-IgG infusion (rotarod) versus control chow-treated group” value in test [2] (PLX3397 chow started 7 days before NMO-IgG infusion) was “significantly better”.

`CN(C)c1ccc(O)c2c1C[C@H]1C[C@H]3[C@H](N(C)C)C(O)=C(C(N)=O)C(=O)[C@@]3(O)C(O)=C1C2=O` [minocycline]: the “effect on microglia-astrocyte interaction” value in test [3] is given as “reduced microglia-astrocyte interaction”. In test [4], the “effect on NMO-IgG upregulation of astrocyte complement C3” value is “not altered”. Also, the “effect on NMO-IgG induced motor dysfunction in rotarod test” value in test [2] (intrathecal, 150 µg/day, co-infused with NMO-IgG) was “prevented the NMO-IgG induced motor dysfunction”. For the same molecule, the “effect on motor impairment when given after onset” value in test [2] (systemic injection after 2 days of NMO-IgG infusion) is “reversed the motor impairment”.

For “C3a: signaling molecule produced by cleavage of complement component C3”, in test [5], the “time to induce microglial process chemotaxis” value is at most 30 min.

diphtheria toxin: in test [1] (CX3CR1CreER/+:R26iDTR/+ mice after tamoxifen, 1 to 3 days after DT 50 µg/Kg i.p.), the “depletion of spinal microglia” value is reported as “mostly depleted”.
